TGI data for eleven compounds are collected here from PubChem BioAssay (NCI).

Some test systems named below: CCRF-CEM leukemia; HCC-2998 colon; HOP-92 NSCLC; K-562 leukemia; MDA-N; NCI-H23 lung; RPMI-8226 leukemia; SF-295 CNS; SK-MEL-28 melanoma; SK-OV-3 ovarian; SNB-19 CNS; SNB-75 CNS; UO-31 renal; RXF 393 renal.
What all share (assay): inhibition of tumour cell growth, NCI panel, 48 h

The structures appear in SMILES notation.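 Following 48 hours of exposure in 96-well plates, responses at five concentrations were used to interpolate endpoints linearly. TGI marks complete inhibition of growth.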

`NC(N)=NS(=O)(=O)c1ccc(Nc2c3ccccc3nc3c(C(=O)NC(CO)(CO)CO)cccc23)cc1`: the TGI in the experiment with CCRF-CEM leukemia is 54.8 µM; in the experiment on HCC-2998 colon, above 100 µM; with HOP-92 NSCLC, 48.9 µM; in the experiment on K-562 leukemia it was above 100 µM; in the experiment with MDA-N it was above 100 µM; in the experiment on NCI-H23 lung, above 100 µM. In addition, the TGI in the experiment on RPMI-8226 leukemia was 58.5 µM; in the experiment with SF-295 CNS, above 100 µM; with SK-MEL-28 melanoma it was above 100 µM; in the experiment on SK-OV-3 ovarian, above 100 µM; with SNB-19 CNS it was above 100 µM; with SNB-75 CNS it was 18.7 µM. The compound further displayed a TGI with UO-31 renal of 95.2 µM.

As for `CC(C)c1ccc2c(c1)C=C1OC(=O)[C@]3(C)CCC[C@@]2(C)C13` (some centres not stated), the TGI in the experiment with CCRF-CEM leukemia, with HCC-2998 colon, in the experiment on K-562 leukemia, in the experiment with MDA-N, in the experiment with NCI-H23 lung and in the experiment on RPMI-8226 leukemia was above 100 µM each time. Also, the TGI in the experiment on RXF 393 renal, with SF-295 CNS, with SK-MEL-28 melanoma, in the experiment on SK-OV-3 ovarian, in the experiment with SNB-19 CNS and in the experiment on SNB-75 CNS was above 100 µM each time. Also, in the experiment on UO-31 renal, the TGI is above 100 µM.

Regarding `O=c1c2ccccc2c2c1c1c3ccccc3c(=O)c1c1c3ccccc3c(=O)c21`, the TGI with CCRF-CEM leukemia, in the experiment with HCC-2998 colon, in the experiment on K-562 leukemia, in the experiment on MDA-N, with NCI-H23 lung and with RPMI-8226 leukemia was above 100 µM each time. Moreover, the TGI in the experiment on SF-295 CNS, in the experiment on SK-MEL-28 melanoma, in the experiment with SK-OV-3 ovarian, with SNB-19 CNS, in the experiment on SNB-75 CNS and in the experiment on UO-31 renal was above 100 µM in each case.

For the compound `CC1(C)O[C@H]2[C@@H]3N=C(c4ccccc4)O[C@@H]3C=C[C@H]2O1`, the TGI in the experiment with CCRF-CEM leukemia, in the experiment on HCC-2998 colon, with HOP-92 NSCLC, in the experiment on K-562 leukemia, in the experiment with MDA-N and in the experiment on NCI-H23 lung was above 100 µM throughout. The TGI with RPMI-8226 leukemia, with SF-295 CNS, in the experiment on SK-MEL-28 melanoma, in the experiment on SK-OV-3 ovarian, with SNB-19 CNS and in the experiment with UO-31 renal was above 100 µM throughout.

As for `Cn1c(=O)c2c(ncn2CCSS(=O)(=O)O)n(C)c1=O`, the TGI in the experiment on HOP-92 NSCLC, in the experiment on K-562 leukemia, in the experiment on MDA-N, in the experiment with NCI-H23 lung, in the experiment with RPMI-8226 leukemia and in the experiment with RXF 393 renal was above 100 µM each time. Also, the TGI in the experiment with SF-295 CNS, with SK-MEL-28 melanoma, in the experiment with SK-OV-3 ovarian, with SNB-19 CNS, in the experiment with SNB-75 CNS and in the experiment on UO-31 renal was above 100 µM in each case.

Take `CC(=O)N1C(C(=O)NNc2ccccc2)CSC1c1ccccc1` (configuration not stated): the TGI with CCRF-CEM leukemia, in the experiment on HCC-2998 colon, in the experiment on HOP-92 NSCLC, with K-562 leukemia, with MDA-N and in the experiment with NCI-H23 lung was above 100 µM in each case. For the same compound, the TGI in the experiment with RPMI-8226 leukemia, with SF-295 CNS, in the experiment with SK-OV-3 ovarian, with SNB-19 CNS, in the experiment with SNB-75 CNS and in the experiment on UO-31 renal was above 100 µM throughout.

On to `COc1ccccc1-c1nc2ccccc2c(=O)[nH]1`, for which the TGI in the experiment on CCRF-CEM leukemia, with HCC-2998 colon, in the experiment with MDA-N, in the experiment with NCI-H23 lung, with RPMI-8226 leukemia and in the experiment with RXF 393 renal was above 100 µM each time. The TGI in the experiment on SF-295 CNS, with SK-OV-3 ovarian, in the experiment with SNB-19 CNS, in the experiment on SNB-75 CNS and with UO-31 renal was above 100 µM throughout.

For the compound `O/N=C1/CCCCCC1NO` (configuration not stated), the TGI with HCC-2998 colon, in the experiment on HOP-92 NSCLC, with MDA-N, with NCI-H23 lung, in the experiment with RPMI-8226 leukemia and in the experiment with RXF 393 renal was above 100 µM each time. Besides, the TGI in the experiment with SF-295 CNS, in the experiment with SK-MEL-28 melanoma, with SK-OV-3 ovarian, in the experiment with SNB-19 CNS and in the experiment on UO-31 renal was above 100 µM throughout.

Turning to `CCn1c(-c2ccccc2)nc2c1C(=O)c1ccccc1C2=O`, the TGI in the experiment on CCRF-CEM leukemia is above 100 µM; in the experiment on HCC-2998 colon, 51.4 µM; in the experiment on HOP-92 NSCLC it was 82 µM; in the experiment on K-562 leukemia it was above 100 µM; with MDA-N it was 36.9 µM; in the experiment on NCI-H23 lung, above 100 µM. The TGI in the experiment on RPMI-8226 leukemia is above 100 µM; with RXF 393 renal, 50.9 µM; in the experiment on SF-295 CNS it was 62.9 µM; with SK-MEL-28 melanoma it was above 100 µM; in the experiment on SK-OV-3 ovarian, 86 µM; in the experiment with SNB-19 CNS it was above 100 µM.

Consider `COc1cc(S(=O)(=O)Nc2ccc(-c3csc(N4C(=O)C(C)SC4c4ccccc4O)n3)cc2)ccc1Cl` (configuration not stated), for which the TGI in the experiment on CCRF-CEM leukemia, in the experiment with HOP-92 NSCLC, in the experiment on K-562 leukemia, with MDA-N, in the experiment on NCI-H23 lung and with RPMI-8226 leukemia was above 100 µM each time. For the same compound, the TGI in the experiment with SF-295 CNS was above 100 µM; in the experiment on SK-MEL-28 melanoma, 55.6 µM; in the experiment with SK-OV-3 ovarian, above 100 µM; in the experiment on SNB-19 CNS, above 100 µM; with SNB-75 CNS it was 95.7 µM; with UO-31 renal, above 100 µM.

Take `COc1ccc(N=Nc2c(C)c(C#N)c(=S)n(C3OC(COC(C)=O)C(OC(C)=O)C(OC(C)=O)C3OC(C)=O)c2-c2ccccc2)cc1` (configuration not stated): the TGI in the experiment with CCRF-CEM leukemia is above 100 µM; in the experiment with HCC-2998 colon it was above 100 µM; in the experiment with HOP-92 NSCLC, 7.83 µM; in the experiment with K-562 leukemia it was above 100 µM; in the experiment on MDA-N it was 22.9 µM; in the experiment on NCI-H23 lung, 34.6 µM. Further, the TGI was above 100 µM in the experiment with RPMI-8226 leukemia; 23.7 µM in the experiment with RXF 393 renal; 82.1 µM in the experiment on SF-295 CNS; 20.3 µM with SK-MEL-28 melanoma; 24.2 µM with SNB-19 CNS; 94.7 µM in the experiment with UO-31 renal.
